Data set [1] deals with T1, Broad substrate specificity ATP-binding cassette transporter ABCG2 (Homo sapiens, UniProt Q9UNQ0).
T1 sequence (Q9UNQ0 whole entry): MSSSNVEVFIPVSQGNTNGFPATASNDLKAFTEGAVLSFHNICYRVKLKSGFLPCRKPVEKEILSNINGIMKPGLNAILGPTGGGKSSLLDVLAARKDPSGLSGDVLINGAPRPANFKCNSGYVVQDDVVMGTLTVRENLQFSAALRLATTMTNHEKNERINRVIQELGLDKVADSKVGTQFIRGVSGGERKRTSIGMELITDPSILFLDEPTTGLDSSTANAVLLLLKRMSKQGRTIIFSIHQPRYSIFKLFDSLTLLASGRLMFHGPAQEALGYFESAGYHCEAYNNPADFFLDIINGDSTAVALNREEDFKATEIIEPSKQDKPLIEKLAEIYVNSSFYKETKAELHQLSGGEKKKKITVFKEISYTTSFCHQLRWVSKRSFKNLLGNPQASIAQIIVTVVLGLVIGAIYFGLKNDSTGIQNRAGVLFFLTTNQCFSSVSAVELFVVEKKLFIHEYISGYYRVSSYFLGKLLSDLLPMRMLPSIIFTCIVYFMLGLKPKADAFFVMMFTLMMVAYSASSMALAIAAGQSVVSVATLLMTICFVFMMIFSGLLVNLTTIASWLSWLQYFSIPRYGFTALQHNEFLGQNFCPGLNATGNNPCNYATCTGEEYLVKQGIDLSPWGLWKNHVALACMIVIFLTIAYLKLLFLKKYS
Briefly: TP_TRANSPORTER: intracellular accumulation in S1 and S1-M1-80 cells. Particulars: s1;s1-m1-80. The data set is classed as functional, cell-based.

Data set [2] addresses T1, Broad substrate specificity ATP-binding cassette transporter ABCG2. The data set is described as follows: TP_TRANSPORTER: intracellular accumulation in MCF-7 and MCF-7 AdVp3000 cells. The data set is classed as functional, cell-based.

Molecules are shown by their SMILES.

Turning to `O=C1c2c(O)ccc(O)c2C(=O)c2c(NCCNCCO)ccc(NCCNCCO)c21` [MITOXANTRONE], the Activity entry in data set [1] and in data set [2] was “substrate [+]” throughout.
